Data on five compounds can be found in patent US6573219B1, “Substituted heterocyclyl-2H-chromenes” (Bayer Aktiengesellschaft, priority 1999, dated 2003).

Series [1] can be described thus: LogP determination by HPLC (EEC directive 79/831 Annex V.A8, reversed-phase C18). The following applies: reversed-phase C18 HPLC column, mobile phase range not labelled. Type of series: physicochemical. The method, then: The LogP values given in Table 1 were determined in accordance with EEC directive 79/831 Annex V.A8 by HPLC (High Performance Liquid Chromatography) using a reversed-phase column (C 18). Temperature: 43° C.
(a) Mobile phases for the determination in the acidic range: 0.1% aqueous phosphoric acid, acetonitrile; linear gradient from 10% acetonitrile to 90% acetonitrile—the corresponding data in Table 1 are labelled^a).
(b) Mobile phases for the determination in the neutral range, 0.01 molar aqueous phosphate buffer solution, acetonitrile; linear gradient from 10% acetonitrile to 90% acetonitrile—the corresponding data in Table 1 are labelled b
Calibration was carried out using unbranched alkan-2-ones (with from 3 to 16 carbon atoms) whose logP values are known (determination of the logP values by the retention times using linear interpolation between two successive alkanones).

The subject of series [2] is weeds. The series can be described thus: Pre-emergence test (Example A), weeds. Type of series: in vivo. The following applies: soil sprayed 24 hours after sowing, rated after three weeks. The source says:
(§1) Solvent: 5 parts by weight of acetone
(§2) Emulsifier: 1 part by weight of alkylaryl polyglycol ether
Seeds of the test plants are sown in normal soil.
(§3) After three weeks, the degree of damage to the plants is rated in % damage in comparison to the development of the untreated control.

Series [3] relates to weeds. As to the kind of experiment: Post-emergence test (Example B), weeds. Type of series: in vivo. As to conditions: test plants of 5-15 cm sprayed, rated after three weeks.
Description: as §1, §2, §3

Regarding `N#Cc1cc(F)c(N2C(=O)c3ccccc3C2=O)cc1O` [N-(2-fluoro-4-cyano-5-hydroxy-phenyl)-phthalimide], the melting point (in general, the temperature, or range, at which the solid turns liquid) came out at 247 °C. Also, the chromatographic logP – broadly, a lipophilicity value derived from retention on a column – in series [1] stood at 2.04.

Compound `COc1cc(N2C(=O)c3ccccc3C2=O)c(F)cc1C#N` [N-(2-fluoro-4-cyano-5-methoxy-phenyl)-phthalimide] returned a melting point of 245 °C. For the same compound, in series [1], the chromatographic logP was determined as 2.51.

Consider `C#CC(C)Oc1cc(N2C(=O)c3ccccc3C2=O)c(F)cc1C#N` (stereo not shown) [Example (II-2), N-[2-fluoro-4-cyano-5-(but-1-in-3-yl)-oxyphenyl]-phthalimide], for which the melting point was 170 °C. This compound also registered a chromatographic logP in series [1] of 2.92.

For `CC1C=Cc2c(c(C#N)cc(F)c2-n2c(=O)cc(C(F)(F)F)n(N)c2=O)O1` (stereo not shown) [Example 1], the “activity against weeds (degree of damage)” value in the series with weeds [2] is given as “very strong activity”.

`CC1C=Cc2c(c(C#N)cc(F)c2-n2nc(C(F)(F)F)n(C)c2=S)O1` (stereo not shown) [Example 2]: the melting point amounted to 144 °C. The compound further had a chromatographic logP in series [1] of 3.37. Besides, in the series with weeds [3], the “activity against weeds (degree of damage)” value is “very strong activity”.
